Results reported in ChEMBL document CHEMBL4364308, “Design, synthesis, in-silico and biological evaluation of novel chalcone derivatives as multi-function agents for the treatment of Alzheimer's disease” (Eur J Med Chem, 2019).
Activity calls are given as the source filed them. No cut-off for these calls is given here.

Key:
Acetylcholinesterase = Acetylcholinesterase (Electrophorus electricus, UniProt O42275); experiment: Inhibition of electric eel AChE using acetylthiocholine iodide as substrate incubated for 15 mins by Ellman's method; type: ADME
Chain of Acetylcholinesterase (O42275 whole entry): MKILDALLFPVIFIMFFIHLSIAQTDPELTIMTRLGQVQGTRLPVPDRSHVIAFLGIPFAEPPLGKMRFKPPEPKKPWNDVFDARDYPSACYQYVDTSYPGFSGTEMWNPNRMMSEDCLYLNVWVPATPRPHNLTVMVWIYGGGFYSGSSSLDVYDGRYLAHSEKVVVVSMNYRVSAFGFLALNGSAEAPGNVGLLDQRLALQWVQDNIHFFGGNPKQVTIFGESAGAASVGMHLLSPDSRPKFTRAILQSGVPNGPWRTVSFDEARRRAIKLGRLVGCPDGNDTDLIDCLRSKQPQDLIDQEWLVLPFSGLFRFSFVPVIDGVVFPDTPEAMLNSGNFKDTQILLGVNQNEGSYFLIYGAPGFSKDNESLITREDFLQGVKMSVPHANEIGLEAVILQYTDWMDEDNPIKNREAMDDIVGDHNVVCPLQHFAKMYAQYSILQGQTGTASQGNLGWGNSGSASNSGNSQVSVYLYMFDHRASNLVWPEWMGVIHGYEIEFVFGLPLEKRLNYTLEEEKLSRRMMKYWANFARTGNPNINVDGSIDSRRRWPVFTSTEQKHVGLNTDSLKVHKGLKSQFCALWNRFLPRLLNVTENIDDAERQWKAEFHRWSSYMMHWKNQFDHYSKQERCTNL

Cholinesterase = Cholinesterase (Equus caballus, UniProt P81908); experiment: Inhibition of equine serum BuChE using butyrylthiocholine iodide as substrate incubated for 15 mins by Ellman's method
Chain of Cholinesterase (P81908 whole entry): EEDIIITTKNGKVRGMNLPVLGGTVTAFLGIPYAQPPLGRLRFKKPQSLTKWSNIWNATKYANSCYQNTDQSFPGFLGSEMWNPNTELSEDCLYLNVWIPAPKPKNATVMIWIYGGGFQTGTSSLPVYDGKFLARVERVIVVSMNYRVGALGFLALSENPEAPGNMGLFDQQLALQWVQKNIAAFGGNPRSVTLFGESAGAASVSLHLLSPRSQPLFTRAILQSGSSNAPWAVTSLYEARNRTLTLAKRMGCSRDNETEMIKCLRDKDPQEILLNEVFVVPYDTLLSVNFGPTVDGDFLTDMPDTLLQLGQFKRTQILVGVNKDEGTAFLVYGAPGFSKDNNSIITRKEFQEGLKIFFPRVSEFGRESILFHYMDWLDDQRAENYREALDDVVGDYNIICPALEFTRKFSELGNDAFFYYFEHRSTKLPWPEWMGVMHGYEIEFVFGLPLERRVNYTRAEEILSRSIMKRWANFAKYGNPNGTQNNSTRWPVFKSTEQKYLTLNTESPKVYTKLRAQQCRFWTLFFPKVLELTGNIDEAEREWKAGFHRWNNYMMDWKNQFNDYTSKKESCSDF

[1] = Selectivity index, ratio of IC50 for electric eel AChE to IC50 for equine serum BuChE
[2] = molecular target: T1, Amine oxidase [flavin-containing] A (Homo sapiens, UniProt P21397); experiment: Inhibition of recombinant human MAO-A expressed in baculovirus infected BTI insect cells at 10 uM incubated for 30 mins using kynuramine as substrate by fluorescence based assay relative to control; conditions: 0.5 h
T1 sequence (P21397 whole entry): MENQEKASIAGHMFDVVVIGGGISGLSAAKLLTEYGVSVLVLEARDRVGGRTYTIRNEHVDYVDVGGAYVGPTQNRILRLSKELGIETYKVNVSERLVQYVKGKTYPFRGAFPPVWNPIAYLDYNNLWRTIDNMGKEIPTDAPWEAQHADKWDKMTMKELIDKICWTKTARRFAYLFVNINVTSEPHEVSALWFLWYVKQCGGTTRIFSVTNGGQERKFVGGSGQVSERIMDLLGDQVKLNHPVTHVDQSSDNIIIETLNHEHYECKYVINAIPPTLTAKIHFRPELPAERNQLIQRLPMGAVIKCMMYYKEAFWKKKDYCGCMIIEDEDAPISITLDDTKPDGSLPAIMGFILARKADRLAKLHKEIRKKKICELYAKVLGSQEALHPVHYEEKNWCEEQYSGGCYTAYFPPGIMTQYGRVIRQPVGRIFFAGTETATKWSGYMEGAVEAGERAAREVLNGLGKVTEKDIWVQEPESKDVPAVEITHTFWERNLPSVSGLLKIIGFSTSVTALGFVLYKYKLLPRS

[3] = molecular target: T2, Amine oxidase [flavin-containing] B (Homo sapiens, UniProt P27338); experiment: Inhibition of recombinant human MAO-B expressed in baculovirus infected BTI insect cells using kynuramine as substrate incubated for 30 mins by fluorescence based assay; type: cell-based
T2 sequence (P27338 whole entry): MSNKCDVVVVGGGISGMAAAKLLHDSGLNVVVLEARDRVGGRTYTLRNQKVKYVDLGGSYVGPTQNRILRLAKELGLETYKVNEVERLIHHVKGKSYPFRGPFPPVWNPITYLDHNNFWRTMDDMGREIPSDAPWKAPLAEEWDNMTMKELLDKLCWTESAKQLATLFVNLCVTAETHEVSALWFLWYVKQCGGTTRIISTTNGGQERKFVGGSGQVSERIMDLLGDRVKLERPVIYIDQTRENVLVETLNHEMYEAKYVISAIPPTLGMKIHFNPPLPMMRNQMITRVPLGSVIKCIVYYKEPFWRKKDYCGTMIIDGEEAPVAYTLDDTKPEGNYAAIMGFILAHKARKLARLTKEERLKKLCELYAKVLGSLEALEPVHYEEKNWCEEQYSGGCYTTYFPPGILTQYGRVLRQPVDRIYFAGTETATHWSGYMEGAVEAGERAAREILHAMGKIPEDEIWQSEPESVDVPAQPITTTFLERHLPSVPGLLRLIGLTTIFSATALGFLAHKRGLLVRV

[4] = Antioxidant activity assessed as AAPH radical scavenging activity preincubated for 15 mins followed by AAPH addition measured every min for 90 mins by ORAC-FL assay relative to trolox; type: functional
[5] = molecular target: Amyloid-beta precursor protein (Homo sapiens) (UniProt P05067); experiment: Inhibition of self-induced aggregation of amyloid beta (1 to 42) (unknown origin) at 25 uM incubated for 24 hrs by thioflavin-T fluorescence assay relative to control
Chain of Amyloid-beta precursor protein (Homo sapiens) (P05067 whole entry): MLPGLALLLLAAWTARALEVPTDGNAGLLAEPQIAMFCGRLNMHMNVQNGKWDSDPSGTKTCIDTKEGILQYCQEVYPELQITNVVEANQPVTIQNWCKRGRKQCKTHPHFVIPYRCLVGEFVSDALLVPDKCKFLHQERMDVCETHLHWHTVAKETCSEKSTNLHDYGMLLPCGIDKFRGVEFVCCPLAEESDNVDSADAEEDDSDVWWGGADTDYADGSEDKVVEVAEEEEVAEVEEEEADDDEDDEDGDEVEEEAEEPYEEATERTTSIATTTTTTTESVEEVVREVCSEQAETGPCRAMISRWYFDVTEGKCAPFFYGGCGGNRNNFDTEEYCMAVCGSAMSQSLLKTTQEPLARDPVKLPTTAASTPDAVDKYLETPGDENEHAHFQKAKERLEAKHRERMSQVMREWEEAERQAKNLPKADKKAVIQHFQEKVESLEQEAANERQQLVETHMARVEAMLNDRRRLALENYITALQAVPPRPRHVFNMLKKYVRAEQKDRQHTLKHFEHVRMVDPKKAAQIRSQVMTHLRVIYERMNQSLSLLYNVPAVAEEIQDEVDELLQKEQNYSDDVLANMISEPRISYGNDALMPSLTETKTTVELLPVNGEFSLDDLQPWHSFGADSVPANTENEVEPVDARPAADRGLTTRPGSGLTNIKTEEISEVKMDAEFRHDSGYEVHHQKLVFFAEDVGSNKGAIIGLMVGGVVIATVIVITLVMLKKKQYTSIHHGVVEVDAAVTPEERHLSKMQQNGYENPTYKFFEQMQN

[6] = Permeability of compound at 100 ug/ml measured after dilution with PBS/EtOH (70:30) at pH 7.4 after 18 hrs by PAMPA-BBB assay
[7] = molecular target: Cholinesterase (Equus caballus) (UniProt P81908); experiment: Reversible inhibition of equine serum BuChE assessed as enzyme activity at 0.1xIC50 using butyrylthiocholine iodide as substrate measured after dilution by Ellman's method relative to control; set-up: scale not given: the % may be the effect or the level left
Chain of Cholinesterase (Equus caballus) (P81908 whole entry): as the sequence (P81908 whole entry) above

[8] = molecular target: Cholinesterase (Equus caballus) (UniProt P81908); experiment: Reversible inhibition of equine serum BuChE assessed as enzyme activity at 1xIC50 using butyrylthiocholine iodide as substrate measured after dilution by Ellman's method relative to control; set-up: scale not given: the % may be the effect or the level left
[9] = molecular target: Cholinesterase (Equus caballus) (UniProt P81908); experiment: Reversible inhibition of equine serum BuChE assessed as enzyme activity at 0.1xIC50 using butyrylthiocholine iodide as substrate measured at 240 mins after dilution by Ellman's method relative to control; set-up: scale not given: the % may be the effect or the level left
[10] = molecular target: T1, Amine oxidase [flavin-containing] A; experiment: Inhibition of recombinant human MAO-A expressed in baculovirus infected BTI insect cells using kynuramine as substrate incubated for 30 mins by fluorescence based assay
Homo sapiens = organism: Homo sapiens; experiment: Selectivity index, ratio of IC50 for recombinant human MAO-A expressed in baculovirus infected BTI insect cells to IC50 for recombinant human MAO-B expressed in baculovirus infected BTI insect cells
[11] = Inhibition of Cu2+ induced human amyloid beta (1 to 42) aggregation at 25 uM after 24 hrs by thioflavin-T fluorescence assay relative to control
[12] = Disaggregation of Cu2+ induced preformed fibrils of amyloid beta (1 to 42) (unknown origin) at 25 uM after 24 hrs by transmission electron microscopy relative to control
[13] = Metal chelating activity assessed as compound-Cu2+ complex formation by measuring shift in maximum absorption from 361 nm to 418 nm at 37.5 uM after 30 mins by UV-visible spectrometry method
[14] = Metal chelating activity assessed as compound-Al3+ complex formation by measuring shift in maximum absorption from 361 nm to 426 nm at 37.5 uM after 30 mins by UV-visible spectrometry method
[15] = Metal chelating activity assessed as compound-Zn2+ complex formation assessed as effect on maximum absorption shift at 37.5 uM after 30 mins by UV-visible spectrometry method
[16] = Metal chelating activity assessed as compound-Fe2+ complex formation assessed as effect on maximum absorption shift at 37.5 uM after 30 mins by UV-visible spectrometry method
[17] = Metal chelating activity assessed as compound-Cu+ complex formation assessed as effect on maximum absorption shift at 37.5 uM after 30 mins by UV-visible spectrometry method
[18] = Metal chelating activity assessed as compound-Fe3+ complex formation assessed as effect on maximum absorption shift at 37.5 uM after 30 mins by UV-visible spectrometry method
PC-12 [19] = experiment: Neuroprotective activity against H2O2-induced cell death in rat PC12 cells assessed as cell viability at 10 uM preincubated for 24 hrs followed by H2O2 stimulation for 2 hrs followed by replacement of fresh medium and measured after 24 hrs by MTT assay (reference value: 51.3%); type: functional; conditions: read-out: Activity
PC-12 [20] = experiment: Neuroprotective activity against H2O2-induced cell death in rat PC12 cells assessed as cell viability at 1 uM preincubated for 24 hrs followed by H2O2 stimulation for 2 hrs followed by replacement of fresh medium and measured after 24 hrs by MTT assay (reference value: 51.3%); type: functional; conditions: read-out: Activity
PC-12 [21] = experiment: Neuroprotective activity against H2O2-induced cell death in rat PC12 cells assessed as increase in cell viability preincubated for 24 hrs followed by H2O2 stimulation for 2 hrs followed by replacement of fresh medium and measured after 24 hrs by MTT assay; type: functional, cell-based
[22] = Acute toxicity in Kunming mouse assessed as mortality at 250 to 1000 mg/kg, po measured for first 4 hrs through 14 days; type: organism-based; conditions: in vivo
Mus musculus [23] = experiment: (§1) Antialzheimer activity in po dosed scopolamine-induced memory impairment Kunming mouse model assessed as increase in latency time treated with compound 1 hr before training trial followed by 30 mins later administration with scopolamine and measured 24 hrs after training trial by step-down passive avoidance test; type: functional, organism-based
Mus musculus [24] = experiment: as §1, with “in” for “in po dosed”, “as” for “as increase in”, “time at 16.8 mg/kg po” for “time”, “test (reference value: 70.4 secs)” for “test”; type: functional
PC-12 [25] = experiment: Cytotoxicity against rat PC12 cells assessed as cell viability at 0.1 to 100 uM incubated for 24 hrs by MTT assay; type: cell-based; conditions: pc-12, 24 h
[26] = Acute toxicity in Kunming mouse assessed as abnormal behaviour at 250 to 1000 mg/kg, po measured for first 4 hrs through 14 days; type: organism-based; conditions: in vivo

SMILES: O=C(/C=C/c1cccc(OCCCCN2CCC(Cc3ccccc3)CC2)c1)c1ccccc1O
- IC50 (Acetylcholinesterase): 15.3 µM
- IC50 (Cholinesterase): 4.9 µM
- Ratio IC50 [1]: 3.1
- inhibition at 10 µM [2]: < 5%
- IC50 [3]: 6.4 µM
- Activity [4]: 1.2 µMequiv/µM
- inhibition [5]: 71.4%
- Papp at 18 h, 100 ug/ml [6]: 12.3 ×10⁻⁶ cm/s

SMILES: COc1cc2c(cc1OC)C(=O)C(CC1CCN(Cc3ccccc3)CC1)C2 (centres undefined)
- Activity [7]: 60.5%
- Activity [8]: 50.9%
- Activity [9]: 127%

SMILES: O=C(/C=C/c1cccc(OCCCCCCN2CCc3ccccc3C2)c1)c1ccccc1O
- IC50 (Acetylcholinesterase): 27.1 µM
- IC50 (Cholinesterase): 4.1 µM
- Ratio IC50 [1]: 6.6
- IC50 [10]: 31.5 µM
- IC50 [3]: 6.7 µM
- Ratio IC50 (Homo sapiens): 4.7
- Activity [4]: 1.1 µMequiv/µM
- inhibition [5]: 65.6%
- Papp at 18 h, 100 ug/ml [6]: 11.8 ×10⁻⁶ cm/s

SMILES: COc1cc(/C=C/C(=O)CC(=O)/C=C/c2ccc(O)c(OC)c2)ccc1O
- inhibition [11]: 76.5%
- inhibition [12]: 56.5%

SMILES: O=C(/C=C/c1ccc(F)cc1)c1ccc(OCCCN2CCc3ccccc3C2)cc1O
- IC50 (Acetylcholinesterase): 22.3 µM
- IC50 (Cholinesterase): 13.4 µM
- Ratio IC50 [1]: 1.7
- IC50 [10]: 26.1 µM
- IC50 [3]: 12.6 µM
- Ratio IC50 (Homo sapiens): 2.1
- Activity [4]: 0.92 µMequiv/µM
- inhibition [5]: 72.4%
- Papp at 18 h, 100 ug/ml [6]: 12.6 ×10⁻⁶ cm/s

SMILES: CN(C)c1ccc(/C=C/C(=O)c2ccc(OCCCCCCN3CCc4ccccc4C3)cc2O)cc1
- IC50 (Acetylcholinesterase): 6.6 µM
- IC50 (Cholinesterase): 10.4 µM
- Ratio IC50 [1]: 0.6
- inhibition at 10 µM [2]: < 5%
- IC50 [3]: 7.1 µM
- Activity [4]: 1.6 µMequiv/µM
- inhibition [5]: 97.5%
- Papp at 18 h, 100 ug/ml [6]: 13.2 ×10⁻⁶ cm/s

SMILES: O=C(CCc1cccc(OCCCCN2CCc3ccccc3C2)c1)c1ccccc1O
- IC50 (Acetylcholinesterase): 23.1 µM
- IC50 (Cholinesterase): 0.64 µM
- Ratio IC50 [1]: 36
- inhibition at 10 µM [2]: < 5%
- IC50 [3]: 26.7 µM
- Activity [4]: 1.4 µMequiv/µM
- Papp at 18 h, 100 ug/ml [6]: 16.8 ×10⁻⁶ cm/s

SMILES: O=C(/C=C/c1cccc(OCCCCCN2CCc3ccccc3C2)c1)c1ccccc1O
- IC50 (Acetylcholinesterase): 18.6 µM
- IC50 (Cholinesterase): 3.7 µM
- Ratio IC50 [1]: 7.2
- inhibition at 10 µM [2]: < 5%
- IC50 [3]: 4.8 µM
- Activity [4]: 1.2 µMequiv/µM
- inhibition [5]: 69.7%
- Papp at 18 h, 100 ug/ml [6]: 10 ×10⁻⁶ cm/s

SMILES: COc1ccccc1/C=C/C(=O)c1ccc(OCCCCN2CCc3ccccc3C2)cc1O
- IC50 (Acetylcholinesterase): 8.3 µM
- IC50 (Cholinesterase): 5.2 µM
- Ratio IC50 [1]: 1.6
- IC50 [10]: 30.1 µM
- IC50 [3]: 9.5 µM
- Ratio IC50 (Homo sapiens): 2.4
- Activity [4]: 1.5 µMequiv/µM
- inhibition [5]: 83.1%
- Papp at 18 h, 100 ug/ml [6]: 13.1 ×10⁻⁶ cm/s

SMILES: O=C(/C=C/c1cccc(OCCCN2CCc3ccccc3C2)c1)c1ccccc1O
- IC50 (Acetylcholinesterase): 17.6 µM
- IC50 (Cholinesterase): 11.2 µM
- Ratio IC50 [1]: 1.6
- IC50 [10]: 29.8 µM
- IC50 [3]: 10.7 µM
- Ratio IC50 (Homo sapiens): 2.8
- Activity [4]: 1.1 µMequiv/µM
- inhibition [5]: 65.9%
- Papp at 18 h, 100 ug/ml [6]: 10.2 ×10⁻⁶ cm/s

SMILES: O=C(/C=C/c1cccc(OCCCCN2CCc3ccccc3C2)c1)c1ccccc1O
- IC50 (Acetylcholinesterase): 16.2 µM
- IC50 (Cholinesterase): 2.6 µM
- Ratio IC50 [1]: 6.2
- inhibition at 10 µM [2]: < 5%
- IC50 [3]: 5.3 µM
- Activity [7]: 60.8%
- Activity [8]: 52.6%
- Activity [9]: 104%
- Activity [4]: 1.2 µMequiv/µM
- inhibition [5]: 70.2%
- inhibition [11]: 80.7%
- inhibition [12]: 73.5%
- Activity [13]: Active
- Activity [14]: Active
- Activity [15]: inactive
- Activity [16]: inactive
- Activity [17]: inactive
- Activity [18]: inactive
- viability at 10 µM (PC-12 [19]): 82.6%
- viability at 1 µM (PC-12 [20]): 61.9%
- Activity (PC-12 [21]): Dose-dependent effect
- Papp at 18 h, 100 ug/ml [6]: 11.3 ×10⁻⁶ cm/s
- Activity [22]: Non-Toxic
- Activity (Mus musculus [23]): Dose-dependent effect
- Time (Mus musculus [24]): 126.4 s
- Activity (PC-12 [25]): Non-Toxic
- Activity [26]: Non-Toxic
